Measured values taken from PubChem BioAssay AID248 (DTP/NCI, 2004).
Values joined by “and” are separate entries in the source; they are usually repeats but may differ in a detail not shown here. Equal values may be shown once. Toxic doses and inconclusive results are not listed.

Tested on: L1210 leukemia ip in BDF1 mice, survival T/C
Assay: NCI In Vivo Anticancer Drug Screen. Data for tumor model L1210 Leukemia (intraperitoneal) in B6D2F1 (BDF1) mice
Conditions: endpoint: mean survival time, higher = longer survival
How it was run: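 Antitumor effect is assessed in tumor-bearing animals. Survival in the compound arm is compared with a vehicle-dosed control arm and expressed as their quotient.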

[1] = dose: 100.0 mg/kg/injection, schedule: Q01DX001 (ip), vehicle: saline
[2] = dose: 200.0 mg/kg/injection, schedule: Q01DX001 (ip), vehicle: saline
[3] = dose: 400.0 mg/kg/injection, schedule: Q01DX001 (ip), vehicle: saline
[4] = dose: 100.0 mg/kg/injection, schedule: Q01DX001 (ip), vehicle: saline with Tween-80
[5] = dose: 200.0 mg/kg/injection, schedule: Q01DX001 (ip), vehicle: saline with Tween-80
[6] = dose: 178.0 mg/kg/injection, schedule: Q01DX001 (ip), vehicle: saline
[7] = dose: 267.0 mg/kg/injection, schedule: Q01DX001 (ip), vehicle: saline

O/N=C/c1ccc2c(c1)OCO2
T/C (dose: 50.0 mg/kg/injection, schedule: Q01DX001 (ip), vehicle: saline): 96 % of control
T/C [1]: 96 % of control
T/C (dose: 100.0 mg/kg/injection, schedule: Q04DX002 (ip), vehicle: gum acacia): 106 % of control
T/C [2]: 102 % of control
T/C (dose: 200.0 mg/kg/injection, schedule: Q04DX002 (ip), vehicle: gum acacia): 110 % of control
T/C [3]: 96 % of control
T/C (dose: 400.0 mg/kg/injection, schedule: Q04DX002 (ip), vehicle: gum acacia): 92 % of control

CCC1(C)CCC2(C)C(CCC3C2CCCC3(C)C(=O)O)C1 (stereo not given)
T/C (dose: 12.5 mg/kg/injection, schedule: Q04DX002 (ip), vehicle: saline with Tween-80): 96 % of control
T/C (dose: 25.0 mg/kg/injection, schedule: Q04DX002 (ip), vehicle: saline with Tween-80): 96 % of control
T/C (dose: 50.0 mg/kg/injection, schedule: Q04DX002 (ip), vehicle: saline with Tween-80): 89 % of control

O=C(O)c1ccccc1Oc1ccccc1
T/C [4]: 94 % of control
T/C [5]: 91 % of control
T/C (dose: 400.0 mg/kg/injection, schedule: Q01DX001 (ip), vehicle: saline with Tween-80): 91 % of control

Cc1ccc2c(=O)n(C)c(=O)n(C)c2n1
T/C (dose: 100.0 mg/kg/injection, schedule: Q04DX002 (ip), vehicle: Klucel (hydroxypropylcellulose) (HPC)): 106 % of control
T/C (dose: 200.0 mg/kg/injection, schedule: Q04DX002 (ip), vehicle: Klucel (hydroxypropylcellulose) (HPC)): 106 % of control
T/C (dose: 400.0 mg/kg/injection, schedule: Q04DX002 (ip), vehicle: Klucel (hydroxypropylcellulose) (HPC)): 106 % of control

CC(C)(C)NC(=O)C(Cl)Cl
T/C [4]: 88 % of control
T/C [5]: 98 % of control

CC(=O)/C(=N\N=C(N)N)c1ccccc1
T/C (dose: 1.88 mg/kg/injection, schedule: Q01DX Z (ip), vehicle: saline): 102 % of control
T/C (dose: 3.75 mg/kg/injection, schedule: Q01DX Z (ip), vehicle: saline): 93 % of control
T/C (dose: 3.75 mg/kg/injection, schedule: Q01DX Z (oral), vehicle: other): 90 % of control
T/C (dose: 7.5 mg/kg/injection, schedule: Q01DX Z (ip), vehicle: saline): 98 % of control
T/C (dose: 7.5 mg/kg/injection, schedule: Q01DX Z (oral), vehicle: other): 98 % of control
T/C (dose: 15.0 mg/kg/injection, schedule: Q01DX Z (oral), vehicle: other): 96 % of control

COC1C(O)=C2C(=O)OC(C)(O)/C=C/C=C\C=C/C=C/C(c3ccccc3)NC(=O)/C=C/C=C/C=C/C=C/C2(C)C1O (stereo not given)
T/C (dose: 2.5 mg/kg/injection, schedule: Q01DX009 (ip), vehicle: saline): 94 % of control
T/C (dose: 5.0 mg/kg/injection, schedule: Q01DX009 (ip), vehicle: saline): 100 % of control
T/C (dose: 10.0 mg/kg/injection, schedule: Q01DX009 (ip), vehicle: saline): 95 % of control

CN(C)c1ncnc2c1nnn2C1OC(CO)C(O)C1O (stereo not given)
T/C [6]: 106 % of control
T/C [7]: 106 % of control
T/C [3]: 117 % of control

NCCc1cnc(N=Nc2ccc(S(N)(=O)=O)cc2)[nH]1
T/C (dose: 100.0 mg/kg/injection, schedule: Q04DX003 (ip), vehicle: saline with Tween-80): 93 % of control
T/C (dose: 200.0 mg/kg/injection, schedule: Q04DX003 (ip), vehicle: saline with Tween-80): 96 % of control
T/C (dose: 400.0 mg/kg/injection, schedule: Q04DX003 (ip), vehicle: saline with Tween-80): 86 % of control

O=C(OC(=Nc1ccccc1)N(c1ccccc1)c1ccccc1)c1ccccc1
T/C [1]: 91 % of control
T/C [2]: 95 % of control
T/C [3]: 94 % of control

COc1ccc(CCl)cc1C(=O)O
T/C (dose: 75.0 mg/kg/injection, schedule: Q01DX001 (ip), vehicle: saline): 86 % of control
T/C (dose: 150.0 mg/kg/injection, schedule: Q01DX001 (ip), vehicle: saline): 91 % of control

Nc1ncnc2c1ncn2C1OCC(OCc2ccccc2)C(OCc2ccccc2)C1OCc1ccccc1 (stereo not given)
T/C [1]: 98 % of control
T/C [6]: 97 % of control and 104 % of control
T/C [2]: 98 % of control and 96 % of control
T/C [7]: 97 % of control and 103 % of control
T/C [3]: 101 % of control and 220 % of control and 93 % of control
T/C (dose: 600.0 mg/kg/injection, schedule: Q01DX001 (ip), vehicle: saline): 97 % of control and 101 % of control

O=C(/C=C/c1ccccc1)C(Cl)C(Cl)c1ccccc1 (stereo not given)
T/C (dose: 50.0 mg/kg/injection, schedule: Q01DX009 (sc), vehicle: olive oil, sesame oil, peanut oil): 101 % of control
T/C (dose: 100.0 mg/kg/injection, schedule: Q01DX009 (sc), vehicle: olive oil, sesame oil, peanut oil): 101 % of control
T/C (dose: 200.0 mg/kg/injection, schedule: Q01DX009 (sc), vehicle: olive oil, sesame oil, peanut oil): 97 % of control

c1ccc(C2CCCCCC2)cc1
T/C (dose: 100.0 mg/kg/injection, schedule: Q01DX009 (ip), vehicle: saline): 104 % of control
T/C (dose: 200.0 mg/kg/injection, schedule: Q01DX009 (ip), vehicle: saline): 95 % of control
T/C (dose: 400.0 mg/kg/injection, schedule: Q01DX009 (ip), vehicle: saline): 90 % of control
